Patent US10231958B2, “Methods and compositions for enhancing chemotherapy” (THE BOARD OF REGENTS OF THE UNIVERSITY OF TEXAS SYSTEM, priority 2015, dated 2019)

Legend:
[1] = tested on: protein sulfhydryl (protein-SH) groups; assay: Protein sulfhydryl groups (dibromobimane assay); format: cell-based; details: BSO treatment plus MMS
Protocol: Protein reduced thiol groups (Protein-SH) were measured by dibromobimane assays with minor modifications (PMID:20463849). The 6-well plated cells (500,000 cells) were scraped in 0.6 mL PBS and 200 μL Perchloric acid (6 N) was added to precipitate proteins. The samples were incubated for 5 min in ice, centrifuged (14,000×g) Supernatants containing small peptides and glutathione were discarded and pellets were resuspended in 100 μL NaOH 0.1N, neutralized with 100 μL ice cold Perchloric acid (0.1 N), and 0.1 N PBS was added to keep pH constant. A stock solution of 4 mM dibromobimane in DMSO was added to a final concentration 40 μM, and incubated for 30 30 min at 37° C. Dibromobimane-protein fluorescence was measured at Ex=393 and, Em=477 nm.

[2] = tested on: Kc167 cells, MEFs, and MDA-MB231 breast cancer cells; assay: Cell viability (CellTiter-Glo); format: cell-based, D. melanogaster, mouse, human; details: for effect on MMS toxicity / effect on toxicity of 4-HC, TMZ and CDDP: pre-incubation; for effect on MMS toxicity: then MMS, all cell types tested, 48 h; for effect on toxicity of 4-HC, TMZ and CDDP: then alkylator
Protocol: The D. melanogaster embryonic cell line Kc167 was grown in Schneider medium (Invitrogen, Carlsbad, Calif.) supplemented with 10% heat-inactivated (56° C./30 min) fetal bovine serum (FBS), penicillin and streptomycin at 22° C. in a humidified incubator. Primary MEFs were obtained by harvesting 14.5-day C57BL/6J embryos as previously described (Ravi et al., 2009, PLoS Genet 5, e1000527). Briefly, fetal liver and head were removed and the remainder of the embryo was mechanically disaggregated in plating medium. A suspension of single-cells was plated in DMEM (plus 10% FBS, 100 U/mL penicillin and 100 μg/mL streptomycin). MEFs were grown for two passages before freezing aliquots. Aliquots were taken and expanded as needed for each experiment. MDA-MB231, SkBr3 and MCF-7 breast cancer cells lines were obtained from ATCC and grown in DMEM supplemented with 10% inactivated FBS plus antibiotics in a 37° C. humidified incubator at […] atmosphere. Cells were kept and treated in the exponential phase of growing (60-70% confluence). […] DMSO concentrations were kept to a maximum of 0.1% for all experiments. Cell viability was assessed using CellTiter-Glo Luminescent Viability assay (Promega) in 384 or 96-well plates white-border clear-bottom plated cells. For caspase-3/7 activity, Caspase-Glo 3/7 Assay kits were used (Promega). For caspase assays, the cells were seeded in 96-well plates and assayed directly after treatments. Caspase-3/7 inhibitor (Z-DEVD-fmk) was used to ensure assay specificity. LDH release into culture medium was quantified by Cytotox-96 Non-Radioactive assay kit in agreement with instructions (Promega).

[3] = tested on: Intracellular ROS production; assay: Real-time ROS production (DCF assay); format: cell-based; details: for effect on ROS levels: Trolox 200 μM, NAC 7.5 mM, GSH-E 10 mM
Protocol: Intracellular ROS production was detected using DCFH-DA probe (Sigma) (Zanotto-Filho et al., 2010, Cancer Lett 288, 192-203). This reagent enters the cells and reacts predominantly with highly oxidizing species of ROS, such as hydroxyl radicals, hydroperoxides, and peroxynitrite, thus producing the fluorophore DCF. Briefly, cells were seeded in black-edge clear bottom 96-well plates. After reaching 70% confluence, medium was changed and cells were incubated with 20 μM DCFH-DA dissolved in medium containing 0.5% FBS. After 1 h pre-incubation to allow DCFH-DA uptake, treatments were added to its respective final concentrations and DCF fluorescence was monitored at 0.5, 1, 3, 8, 12, 16 and 24 h in a fluorescence reader (Ex/Em=485/532 nm). Hydrogen peroxide was used as a positive control and N-acetylcysteine (NAC), GSH-ethyl-ester (GSH-E) and Trolox were used as antioxidant standards. As a control, at the end of 24 h, cell viability was assessed and compared to wells in the absence of DCFH-DA.

[4] = tested on: Intracellular glutathione levels; assay: Glutathione assay; format: cell-based; details: glutathione precursors
Protocol: Intracellular glutathione levels were measured using the Glutathione (GSH/GSSG/Total) Fluorometric Assay Kit (BioVision Incorporated, Calif.), following manufacturer protocol. Briefly, 1×10^6 cells were scraped in PBS and centrifuged. Pellets were resuspended in 100 μL Glutathione assay buffer. 60 μL of this homogenate was mixed with PCA (perchloric acid) and centrifuged. Supernatant containing small molecules including GSH were neutralized with KOH and 3 fractions were collected and separated to analyze reduced (GSH), oxidized (GSSG) and total glutathione forms (GSH+GSSG) by reaction with OPA probe (o-phthalaldehyde) in the presence or absence of GSH quencher or reducing agents depending on the compound to be determined. Fluorescence was monitored at Ex/Em=340/420 nm for 40 min. Glutathione forms were calculated and normalized by protein (Bradford's assay).

[5] = tested on: NRF2, GCLC, ER stress markers; assay: Western blot of NRF2, GCLC and ER stress markers; format: cell-based; details: CHX 1 μg/mL, Actinomycin D 5 μg/mL, NAC 7.5 mM
Protocol: (§1) Western blot. Protein lysates were prepared using RIPA buffer containing 5% sodium deoxycholate, 0.1% SDS, 0.1% Igepal in PBS with a cocktail of protease and phosphatase inhibitors (1 mM PMSF, 1 mM sodium orthovanadate, 1 mM NaF, and 30 μL/mL aprotinin (Sigma-Aldrich, USA)) and clarified by centrifugation. Protein concentration was determined using Bradford Protein Assay Reagent (Biorad, Hercules, Calif.). Equal amounts of protein were resolved using 8-12% SDS polyacrylamide gel, transferred onto nitrocellulose membranes (Hybond-ECL, GE Healthcare Lifesciences, Piscataway, N.J.) and detected using Lumiglo system (Cell Signaling Technology, Calif.) and x-ray films. Primary antibodies included COX-2 (#4842), NRF2 (D1C9), p-JNK1/2 (Thr183/Tyr185, #4671), p-p38 (Thr180/Tyr182, #9216), p-ERK1/2 (Thr202/Tyr204, #9101), BiP/GRP78 (C50B12), IRE1a (14C10), CHOP (L63F7) and PERK (D11A8) from Cell Signaling Technology; p-IRE1a (Ser724; NB100-2323) from Novus Biologicals; GCLC (Ab41463), beta-actin (ab8227) and ATF6 (Ab37149) from Abcam; p-PERK (Thr 981, sc-32577) and ATF3 (C19) were purchased from Santa Cruz. All primary antibodies were used at 1:1000 dilutions and secondary antibodies were 1:3000 in TBS-T with 5% BSA.

[6] = tested on: MAPKs (ERK1/2, JNK1/2 and p38) and ATF2; assay: Western blot of MAPK phosphorylation; format: cell-based; details: MDA-MB231 cells, 8 h
Protocol: as §1

[7] = tested on: NFκB-responsive firefly luciferase construct in MDA-MB231 cells; assay: NFκB gene reporter assay; format: cell-based, human; details: MDA-MB231, pre-incubation with inhibitor
Protocol: (§2) Prior to transfection, cells were plated in 96-well plates to 80-90% confluence (100 μL antibiotic free-medium) after 24 h. When used, siRNA were incubated by reverse transfection during cells seeding. […] A mixture of non-inducible firefly luciferase construct and constitutively expressing Renilla luciferase construct (40:1) were used as negative controls. Approximately 24 h post-transfection, the medium was changed and the cells were treated for 12 h with alkylating agents (with/out 6 h pre-treatments). At the end of this period, medium was changed to drug-free fresh medium (to minimize the effect of alkylating toxicity on promoters activity) and cells were kept for an additional 12 h.

[8] = tested on: AP1-responsive firefly luciferase construct in MDA-MB231 cells; assay: AP-1 gene reporter assay; format: cell-based, human; details: MDA-MB231, pre-incubation with inhibitor
Protocol: as §2

MDA-MB231 cells = assay: Extracellular matrix invasion assay (Boyden chamber); format: cell-based, human; details: direct incubation
Protocol: (§3) Quantification of MMP1 and MMP3 content in culture medium was assessed using RayBio-MMP3 and RayBio-MMP1 Elisa Kit (RayBiotech, Inc); IL8 was analyzed by Human IL-8 Elisa kit (Pierce Biotechnology). The levels of prostaglandin E2 (PGE2) were determined using the Prostaglandin E2 EIA Kit Monoclonal (Cayman Chemical Company). Culture media were diluted to fit within the standard curves. For conditioned media (CM) preparation for invasion and in vitro angiogenesis experiments, 12-well plated cells were treated with MMS (or MMS plus inhibitors) for 8 h in the presence of 10% FBS, twice washed with HBSS, and incubated with 700 μL drug/serum-free fresh medium for additional 12 h. Thereafter, the conditioned fresh medium was collected and directly used for migration and invasion experiments in order to reduce freezing associated loss of activity.
The invasion potential of breast cancer cells was estimated using the QCM™ 24-Well Cell Invasion Assay Fluorimetric (Millipore). Serum starved cells were trypsinized, trypsin-inhibited, centrifuged, resuspended to 5000 cells/μL, and 50 μL of this suspension (250,000 cells) was seeded on 8 μm pore size inserts coated with extracellular matrix in serum-free conditions. Afterwards, 200 μL conditioned (CM) or fresh medium without serum was added to top chambers. The bottom chamber consisted of 500 μL of DMEM supplemented with 10% FBS as chemoattractant. Cells were allowed to migrate for 24 h at 37° C. under 5% CO2. Invaded cells were detached from the bottom side of the insert, lysed and incubated with CyQuant GR fluorescent Dye for 15 min. Fluorescence was read at Ex/Em=480/520 nm. Percentage of invading cells was compared to cell number standard curves.

human endothelial cells = assay: In vitro angiogenesis (Angiophase kit, CD31); format: cell-based; details: direct incubation
Protocol: as §3
The Angiophase kit (MBL Inc.) was used to assess the angiogenic potential of conditioned media (CM) from breast cancer cells or the direct effect of pharmaceutical inhibitors (free-drug system) on vessel-like structures formation in vitro. With this kit, human endothelial cells are co-cultured in a specially designed medium to form threadlike tubule structures. These gradually join up to form a network of anastomosing tubules, which resemble the capillary bed found in the CAM assay. Kit-provided cryopreserved co-culture of human endothelial cells were plated and kept for 96 h (proliferative phase) without treatments. Afterwards, the cells were maintained in the presence of conditioned medium from alkylating agent treated cells or control medium for a total of 14 days (angiogenic/vasculogenic phase). Medium was changed each 2 days. At the end of treatments, the cells were fixed and immune-stained for CD31 (PECAM-1), following by incubation with secondary antibody conjugate. ELISA was developed using the soluble substrate p-nitrophenyl-phosphate (p-NPP) whose product was colorimetrically read at 405 nm. After ELISA assays, the wells were washed with dH2O and tubule staining was performed by incubating CD31-stained tubules with the substrate BCIP/NBT, which form insoluble precipitates. Tubules were counted and photographed for qualitative monitoring.

Row | Compound | effect on MMS toxicity [2] | effect on toxicity of 4-HC, TMZ and CDDP [2] | effect on GSH levels [4] | effect on ROS levels [3] | trans-well invasion, purified factor (MDA-MB231 cells) | further results
1 | CCCCS(=N)(=O)CCC(N)C(=O)O (centres unmarked) [BSO, buthionine sulfoximine] | substantial necrotic cell death | potentiated | – | – | – | effect on depletion of protein-SH residues by MMS [1]: potentiated the depletion of protein-SH residues by MMS; viability, agent alone ([2]; 2.5 mM, up to 48 h): without effect on viability; ROS production, agent alone ([3]; BSO 2.5 mM, CDDP 75 μM, TMZ 1.5 mM, 4HC 75 μM, 12 h): increased ROS to levels higher than the dose of MMS used; effect on MMS-induced ROS ([3]; BSO plus MMS): 2 fold
2 | CCOC(=O)CNC(=O)[C@H](CS)NC(=O)CC[C@H](N)C(=O)O [GSH-E, glutathione ethyl-ester] | protective against MMS toxicity | attenuated | effectively increased the GSH levels | reduced ROS below levels of the control | – | –
3 | CC(=O)N[C@@H](CS)C(=O)O [NAC, N-Acetyl-Cysteine] | protective against MMS toxicity | attenuated | effectively increased the GSH levels | reduced ROS below levels of the control | – | effect on BSO+MMS toxicity ([2]; NAC pretreatment): rescued the deleterious effects of BSO+MMS combination; effect on MMS-induced NRF2 activation [5]: block both NRF2 activation and ER stress caused by MMS; effect on MMS-induced MAPK phosphorylation [6]: inhibited
4 | N#CC(=C(/N)Sc1ccccc1N)/C(C#N)=C(/N)Sc1ccccc1N [UO126] | – | – | – | – | – | effect on MMS-induced activation of NFκB reporter [7]: blocked; decrease in cell numbers (anti-proliferative, not cytotoxic) (MDA-MB231): 30%; effect on MMS-induced activation of AP-1 reporter [8]: blocked
5 | IL8: purified IL8 | – | – | – | – | stimulated trans-well invasion | vessel-like structure formation, purified factor (human endothelial cells): angiogenic
6 | MMP1: purified MMP1 | – | – | – | – | stimulated trans-well invasion | –
